Here are results for four compounds from PubChem BioAssay (NCI).

Structures are written as SMILES.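 1) Cells in 96-well plates. 2) Compound, 48 h, 5 concentrations. 3) Linear interpolation between surrounding doses. 4) Unreached endpoint = highest concentration. TGI marks complete inhibition of growth.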

The first assay concerns MCF7 breast. The experiment in a line: NCI-60 cell line screen, 48 h.
The compound `Cc1cc(C)c(/C=C(\C(=C/c2c(C)cc(C)cc2C)[N+](=O)[O-])[N+](=O)[O-])c(C)c1` came in with a TGI above 100 µM.

Take `O=C1/C(=C/c2cccc([N+](=O)[O-])c2)Sc2scc(-c3ccc([N+](=O)[O-])cc3)[n+]21`: the TGI is above 100 µM.

The test system of another assay is 786-0 renal. The assay is described as follows: NCI-60 cell line screen, 48 h.
In the case of `COc1cc([N+](=O)[O-])c(OC)c2c(Nc3ccc(S(=O)(=O)O)c4cc(S(=O)(=O)O)cc(S(=O)(=O)O)c34)cc(C)nc12`, the TGI was above 100 µM.

`O=c1c2ccccc2sc2ccccc12` displayed a TGI above 100 µM.

For `O=C1/C(=C/c2cccc([N+](=O)[O-])c2)Sc2scc(-c3ccc([N+](=O)[O-])cc3)[n+]21`, the TGI came to 38.3 µM.

Another assay concerns RPMI-8226 leukemia. The assay is described as follows: NCI-60 cell line screen, 48 h.
With `O=c1c2ccccc2sc2ccccc12`, the TGI is above 100 µM.

Take `Cc1cc(C)c(/C=C(\C(=C/c2c(C)cc(C)cc2C)[N+](=O)[O-])[N+](=O)[O-])c(C)c1`: the TGI came out at 70.9 µM.

For a further assay, the system named is MDA-MB-435. The assay is described as follows: NCI-60 cell line screen, 48 h.
`COc1cc([N+](=O)[O-])c(OC)c2c(Nc3ccc(S(=O)(=O)O)c4cc(S(=O)(=O)O)cc(S(=O)(=O)O)c34)cc(C)nc12`: the TGI was above 100 µM.

With `O=c1c2ccccc2sc2ccccc12`, the TGI is above 100 µM.

In turn, `Cc1cc(C)c(/C=C(\C(=C/c2c(C)cc(C)cc2C)[N+](=O)[O-])[N+](=O)[O-])c(C)c1` registered a TGI above 100 µM.

In turn, `O=C1/C(=C/c2cccc([N+](=O)[O-])c2)Sc2scc(-c3ccc([N+](=O)[O-])cc3)[n+]21` had a TGI of 37.5 µM.

For another assay, the system named is UO-31 renal. The experiment in a line: NCI-60 cell line screen, 48 h.
In turn, `COc1cc([N+](=O)[O-])c(OC)c2c(Nc3ccc(S(=O)(=O)O)c4cc(S(=O)(=O)O)cc(S(=O)(=O)O)c34)cc(C)nc12` had a TGI above 100 µM.

The compound `O=c1c2ccccc2sc2ccccc12` yielded a TGI above 100 µM.

As for `Cc1cc(C)c(/C=C(\C(=C/c2c(C)cc(C)cc2C)[N+](=O)[O-])[N+](=O)[O-])c(C)c1`, the TGI is above 100 µM.

In the case of `O=C1/C(=C/c2cccc([N+](=O)[O-])c2)Sc2scc(-c3ccc([N+](=O)[O-])cc3)[n+]21`, the TGI was determined as 24.1 µM.

Another assay has as its system A549 NSCLC. The assay is described as follows: NCI-60 cell line screen, 48 h.
On to `COc1cc([N+](=O)[O-])c(OC)c2c(Nc3ccc(S(=O)(=O)O)c4cc(S(=O)(=O)O)cc(S(=O)(=O)O)c34)cc(C)nc12`, for which the TGI was above 100 µM.

The compound `O=c1c2ccccc2sc2ccccc12` displayed a TGI above 100 µM.

Compound `Cc1cc(C)c(/C=C(\C(=C/c2c(C)cc(C)cc2C)[N+](=O)[O-])[N+](=O)[O-])c(C)c1` gave a TGI above 100 µM.

In turn, `O=C1/C(=C/c2cccc([N+](=O)[O-])c2)Sc2scc(-c3ccc([N+](=O)[O-])cc3)[n+]21` displayed a TGI above 100 µM.

In another assay the test system is HOP-62 NSCLC. The experiment in a line: NCI-60 cell line screen, 48 h.
The compound `COc1cc([N+](=O)[O-])c(OC)c2c(Nc3ccc(S(=O)(=O)O)c4cc(S(=O)(=O)O)cc(S(=O)(=O)O)c34)cc(C)nc12` gave a TGI above 100 µM.

`O=c1c2ccccc2sc2ccccc12` yielded a TGI above 100 µM.

Consider `Cc1cc(C)c(/C=C(\C(=C/c2c(C)cc(C)cc2C)[N+](=O)[O-])[N+](=O)[O-])c(C)c1`, for which the TGI was above 100 µM.

As for `O=C1/C(=C/c2cccc([N+](=O)[O-])c2)Sc2scc(-c3ccc([N+](=O)[O-])cc3)[n+]21`, the TGI turned out to be 38.3 µM.

A further assay relates to NCI-H23 lung. The experiment in a line: NCI-60 cell line screen, 48 h.
Compound `COc1cc([N+](=O)[O-])c(OC)c2c(Nc3ccc(S(=O)(=O)O)c4cc(S(=O)(=O)O)cc(S(=O)(=O)O)c34)cc(C)nc12` yielded a TGI above 100 µM.

Consider `O=c1c2ccccc2sc2ccccc12`, for which the TGI is above 100 µM.

With `Cc1cc(C)c(/C=C(\C(=C/c2c(C)cc(C)cc2C)[N+](=O)[O-])[N+](=O)[O-])c(C)c1`, the TGI is above 100 µM.

In turn, `O=C1/C(=C/c2cccc([N+](=O)[O-])c2)Sc2scc(-c3ccc([N+](=O)[O-])cc3)[n+]21` had a TGI of 35.5 µM.

The subject of a further assay is ACHN renal. The experiment in a line: NCI-60 cell line screen, 48 h.
In turn, `O=c1c2ccccc2sc2ccccc12` registered a TGI above 100 µM.

In the case of `Cc1cc(C)c(/C=C(\C(=C/c2c(C)cc(C)cc2C)[N+](=O)[O-])[N+](=O)[O-])c(C)c1`, the TGI was above 100 µM.

Regarding `O=C1/C(=C/c2cccc([N+](=O)[O-])c2)Sc2scc(-c3ccc([N+](=O)[O-])cc3)[n+]21`, the TGI came to 49.9 µM.

For another assay, the system named is HS 578T breast. The assay is described as follows: NCI-60 cell line screen, 48 h.
Regarding `COc1cc([N+](=O)[O-])c(OC)c2c(Nc3ccc(S(=O)(=O)O)c4cc(S(=O)(=O)O)cc(S(=O)(=O)O)c34)cc(C)nc12`, the TGI is above 100 µM.

For the compound `O=c1c2ccccc2sc2ccccc12`, the TGI was above 100 µM.

The subject of another assay is UACC-62 melanoma. The experiment in a line: NCI-60 cell line screen, 48 h.
Compound `COc1cc([N+](=O)[O-])c(OC)c2c(Nc3ccc(S(=O)(=O)O)c4cc(S(=O)(=O)O)cc(S(=O)(=O)O)c34)cc(C)nc12` returned a TGI above 100 µM.

Take `O=c1c2ccccc2sc2ccccc12`: the TGI was above 100 µM.

Compound `Cc1cc(C)c(/C=C(\C(=C/c2c(C)cc(C)cc2C)[N+](=O)[O-])[N+](=O)[O-])c(C)c1` had a TGI above 100 µM.

Regarding `O=C1/C(=C/c2cccc([N+](=O)[O-])c2)Sc2scc(-c3ccc([N+](=O)[O-])cc3)[n+]21`, the TGI amounted to 48.5 µM.

The subject of another assay is OVCAR-3 ovarian. The assay is described as follows: NCI-60 cell line screen, 48 h.
`COc1cc([N+](=O)[O-])c(OC)c2c(Nc3ccc(S(=O)(=O)O)c4cc(S(=O)(=O)O)cc(S(=O)(=O)O)c34)cc(C)nc12` yielded a TGI above 100 µM.

On to `O=c1c2ccccc2sc2ccccc12`, for which the TGI is above 100 µM.

Consider `Cc1cc(C)c(/C=C(\C(=C/c2c(C)cc(C)cc2C)[N+](=O)[O-])[N+](=O)[O-])c(C)c1`, for which the TGI is above 100 µM.

Regarding `O=C1/C(=C/c2cccc([N+](=O)[O-])c2)Sc2scc(-c3ccc([N+](=O)[O-])cc3)[n+]21`, the TGI was above 100 µM.

The test system of a further assay is SN12C renal. The assay is described as follows: NCI-60 cell line screen, 48 h.
As for `COc1cc([N+](=O)[O-])c(OC)c2c(Nc3ccc(S(=O)(=O)O)c4cc(S(=O)(=O)O)cc(S(=O)(=O)O)c34)cc(C)nc12`, the TGI is above 100 µM.

In turn, `O=c1c2ccccc2sc2ccccc12` had a TGI above 100 µM.

With `Cc1cc(C)c(/C=C(\C(=C/c2c(C)cc(C)cc2C)[N+](=O)[O-])[N+](=O)[O-])c(C)c1`, the TGI is above 100 µM.

As to `O=C1/C(=C/c2cccc([N+](=O)[O-])c2)Sc2scc(-c3ccc([N+](=O)[O-])cc3)[n+]21`, the TGI came out at 40.9 µM.

The test system of another assay is SR leukemia. The assay is described as follows: NCI-60 cell line screen, 48 h.
`Cc1cc(C)c(/C=C(\C(=C/c2c(C)cc(C)cc2C)[N+](=O)[O-])[N+](=O)[O-])c(C)c1` gave a TGI above 100 µM.

Another assay concerns BT-549 breast. The assay is described as follows: NCI-60 cell line screen, 48 h.
`COc1cc([N+](=O)[O-])c(OC)c2c(Nc3ccc(S(=O)(=O)O)c4cc(S(=O)(=O)O)cc(S(=O)(=O)O)c34)cc(C)nc12` came in with a TGI above 100 µM.

As to `O=c1c2ccccc2sc2ccccc12`, the TGI is above 100 µM.

`Cc1cc(C)c(/C=C(\C(=C/c2c(C)cc(C)cc2C)[N+](=O)[O-])[N+](=O)[O-])c(C)c1` registered a TGI above 100 µM.

`O=C1/C(=C/c2cccc([N+](=O)[O-])c2)Sc2scc(-c3ccc([N+](=O)[O-])cc3)[n+]21`: the TGI turned out to be 28.8 µM.

For a further assay, the system named is HCT-116 colon. The experiment in a line: NCI-60 cell line screen, 48 h.
The compound `COc1cc([N+](=O)[O-])c(OC)c2c(Nc3ccc(S(=O)(=O)O)c4cc(S(=O)(=O)O)cc(S(=O)(=O)O)c34)cc(C)nc12` came in with a TGI above 100 µM.
